Data reported in patent US10647675B2 (priority 2015, dated 2020).
Values after ≈ are worked out from the molar mass of the structure shown.

Legend:
[1] = tested on: Trichophyton rubrum KD-1130; experiment: Antifungal activity evaluation test: minimum inhibitory concentration (MIC), broth dilution by reference to CLSI M38-A2; type: cell-based; details: KD1130, read-out: MIC (T. rubrum)
Procedure, shortened: (§1)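 Broth microdilution after CLSI M38-A2: 2-fold DMSO dilution series in MOPS-buffered RPMI 1640 pH 7.0, inoculum 2×10^3 cells/mL final. Incubated 35° C for 4 days; MIC (μg/mL) is lowest concentration giving visually ≥80% growth inhibition versus growth control.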

[2] = tested on: Trichophyton mentagrophytes SM-110; experiment: as above; type: cell-based; details: SM110, read-out: MIC (T. menta.)
Procedure, shortened: as §1

Compound: COc1ncccc1-c1nccnc1Oc1ccc2c(c1)CCCC2 [I-316, 2-(2-methoxypyridin-3-yl)-3-[(5,6,7,8-tetrahydronaphthalen-2-yl)oxy]pyrazine]
- MIC [1]: ≤ 0.1 µg/mL
- MIC [2]: ≤ 0.1 µg/mL

Compound: COc1ccncc1-c1nccnc1Oc1ccc2c(c1)CCCC2 [I-317, 2-(4-methoxypyridin-3-yl)-3-[(5,6,7,8-tetrahydronaphthalen-2-yl)oxy]pyrazine]
- MIC [1]: ≤ 0.1 µg/mL
- MIC [2]: ≤ 0.1 µg/mL

Compound: COc1ncccc1-c1nccnc1Oc1ccc(OCc2ccccc2)cc1 [I-318, 2-[4-(benzyloxy)phenoxy]-3-(2-methoxypyridin-3-yl)pyrazine]
- MIC [1]: ≤ 0.1 µg/mL
- MIC [2]: ≤ 0.1 µg/mL

Compound: COc1ccccc1-c1cncnc1Oc1ccc(Cl)cc1 [I-319, 4-(4-chlorophenoxy)-5-(2-methoxyphenyl)pyrimidine]
- MIC [1]: ≤ 0.1 µg/mL
- MIC [2]: ≤ 0.1 µg/mL

Compound: COc1ccccc1-c1cncnc1Oc1ccc(C(C)C)cc1 [I-320, 4-(4-isopropylphenoxy)-5-(2-methoxyphenyl)pyrimidine]
- MIC [1]: ≤ 0.1 µg/mL
- MIC [2]: ≤ 0.1 µg/mL

Compound: COc1ccccc1-c1cncnc1Oc1ccc(C(F)(F)F)cc1 [I-321, 5-(2-methoxyphenyl)-4-[4-(trifluoromethyl)phenoxy]pyrimidine]
- MIC [1]: ≤ 0.1 µg/mL
- MIC [2]: ≤ 0.1 µg/mL

Compound: COc1ccccc1-c1cncnc1Oc1ccc(C(F)F)cc1 [I-322, 4-[4-(difluoromethyl)phenoxy]-5-(2-methoxyphenyl)pyrimidine]
- MIC [1]: ≤ 0.1 µg/mL
- MIC [2]: ≤ 0.1 µg/mL

Compound: COc1ccccc1-c1cncnc1Oc1ccc(C(F)F)c(C)c1 [I-323, 4-[4-(difluoromethyl)-3-methylphenoxy]-5-(2-methoxyphenyl)pyrimidine]
- MIC [1]: ≤ 0.1 µg/mL
- MIC [2]: ≤ 0.1 µg/mL

Compound: Cc1cc(Oc2ncncc2-c2cccc3c2OCC3)cnc1C(F)F [I-324]
- MIC [1]: ≤ 0.1 µg/mL
- MIC [2]: ≤ 0.1 µg/mL

Compound: COc1cc(-c2cncnc2Oc2cnc(C(F)F)c(C)c2)c(F)cc1F [I-325, 5-(2,4-difluoro-5-methoxyphenyl)-4-{[6-(difluoromethyl)-5-methylpyridin-3-yl]oxy}pyrimidine]
- MIC [1]: ≤ 0.1 µg/mL
- MIC [2]: ≤ 0.1 µg/mL

Compound: c1cc(-c2cncnc2Oc2ccc3c(c2)CCC3)n2nccc2c1 [I-326, 7-{4-[(2,3-dihydro-1H-inden-5-yl)oxy]pyrimidin-5-yl}pyrazolo[1,5-a]pyridine]
- MIC [1]: ≤ 0.1 µg/mL
- MIC [2]: ≤ 0.1 µg/mL

Compound: FC(F)(F)c1ccc(Oc2ncncc2-c2cccc3c2OCC3)cn1 [I-327, 5-(2,3-dihydrobenzofuran-7-yl)-4-{[6-(trifluoromethyl)pyridin-3-yl]oxy}pyrimidine]
- MIC [1]: ≤ 0.1 µg/mL
- MIC [2]: ≤ 0.1 µg/mL

Compound: COc1cc(F)c(F)cc1-c1cncnc1Oc1ccc(C(F)(F)F)nc1 [I-328, 5-(4,5-difluoro-2-methoxyphenyl)-4-{[6-(trifluoromethyl)pyridin-3-yl]oxy}pyrimidine]
- MIC [1]: ≤ 0.1 µg/mL
- MIC [2]: ≤ 0.1 µg/mL

Compound: COc1cc(-c2cncnc2Oc2ccc(C(F)(F)F)nc2)c(F)cc1F [I-329, 5-(2,4-difluoro-5-methoxyphenyl)-4-{[6-(trifluoromethyl)pyridin-3-yl]oxy}pyrimidine]
- MIC [1]: ≤ 0.1 µg/mL
- MIC [2]: ≤ 0.1 µg/mL

Compound: COc1ncccc1-c1cncnc1Oc1ccc(C(F)(F)F)cc1 [I-330, 5-(2-methoxypyridin-3-yl)-4-[4-(trifluoromethyl)phenoxy]pyrimidine]
- MIC [1]: ≤ 0.1 µg/mL
- MIC [2]: ≤ 0.1 µg/mL

Compound: COc1c(Cl)cncc1-c1cncnc1Oc1ccc(C(F)(F)F)cc1 [I-331, 5-(5-chloro-4-methoxypyridin-3-yl)-4-[4-(trifluoromethyl)phenoxy]pyrimidine]
- MIC [1]: ≤ 0.1 µg/mL
- MIC [2]: ≤ 0.1 µg/mL

Compound: FC(F)(F)c1ccc(Oc2ncncc2-c2cccc3ccnn23)cc1 [I-332, 7-{4-[4-(trifluoromethyl)phenoxy]pyrimidin-5-yl}pyrazolo[1,5-a]pyridine]
- MIC [1]: ≤ 0.1 µg/mL
- MIC [2]: ≤ 0.1 µg/mL

Compound: CC(F)(F)c1ccc(Oc2ncncc2-c2cccc3ccnn23)cc1 [I-333, 7-{4-[4-(1,1-difluoroethyl)phenoxy]pyrimidin-5-yl}pyrazolo[1,5-a]pyridine]
- MIC [1]: ≤ 0.1 µg/mL
- MIC [2]: ≤ 0.1 µg/mL

Compound: COc1cc(-c2cncnc2Oc2ccc(C(C)(F)F)nc2)c(F)cc1F [I-334, 4-{[6-(1,1-difluoroethyl)pyridin-3-yl]oxy}-5-(2,4-difluoro-5-methoxyphenyl)pyrimidine]
- MIC [1]: ≤ 0.1 µg/mL
- MIC [2]: ≤ 0.1 µg/mL

Compound: CC(F)(F)c1ccc(Oc2ncncc2-c2cccc3c2OCC3)cn1 [I-335, 4-{[6-(1,1-difluoroethyl)pyridin-3-yl]oxy}-5-(2,3-dihydrobenzofuran-7-yl)pyrimidine]
- MIC [1]: ≤ 0.1 µg/mL
- MIC [2]: ≤ 0.1 µg/mL

Compound: COc1cc(F)c(F)cc1-c1cncnc1Oc1ccc(C(C)(F)F)nc1 [I-336, 4-{[6-(1,1-difluoroethyl)pyridin-3-yl]oxy}-5-(4,5-difluoro-2-methoxyphenyl)pyrimidine]
- MIC [1]: ≤ 0.1 µg/mL
- MIC [2]: ≤ 0.1 µg/mL

Compound: COc1ccccc1-c1cccnc1Oc1cnc(Cl)nc1 [I-338, 2-chloro-5-{[3-(2-methoxyphenyl)pyridin-2-yl]oxy}pyrimidine]
- MIC [1]: 0.2 to 0.78 µg/mL (≈ 0.637 to 2.49 µM)
- MIC [2]: 0.2 to 0.78 µg/mL (≈ 0.637 to 2.49 µM)

Compound: COc1ccccc1-c1cccnc1Oc1cnc(N(C)Cc2ccccc2)nc1 [I-339, N-benzyl-5-{[3-(2-methoxyphenyl)pyridin-2-yl]oxy}-N-methylpyrimidin-2-amine]
- MIC [1]: ≤ 0.1 µg/mL
- MIC [2]: ≤ 0.1 µg/mL

Compound: CCN(C)c1ncc(Oc2ncccc2-c2cccc3c2OCC3)cn1 [I-340, 5-{[3-(2,3-dihydrobenzofuran-7-yl)pyridin-2-yl]oxy}-N-ethyl-N-methylpyrimidin-2-amine]
- MIC [1]: ≤ 0.1 µg/mL
- MIC [2]: ≤ 0.1 µg/mL

Compound: Cc1nn(C)c(C)c1-c1cccnc1Oc1ccc(C(F)(F)F)cc1 [I-341, 2-[4-(trifluoromethyl)phenoxy]-3-(1,3,5-trimethyl-1H-pyrazol-4-yl)pyridine]
- MIC [1]: ≤ 0.1 µg/mL
- MIC [2]: 0.2 to 0.78 µg/mL (≈ 0.576 to 2.25 µM)

Compound: Cc1nc(C)c(-c2cccnc2Oc2ccc(C(F)(F)F)cc2)s1 [I-342]
- MIC [1]: 0.2 to 0.78 µg/mL (≈ 0.571 to 2.23 µM)
- MIC [2]: 0.2 to 0.78 µg/mL (≈ 0.571 to 2.23 µM)

Compound: COCC(F)(F)c1ccc(Oc2ncccc2-c2cccc3ncnn23)cn1 [I-343, 5-(2-{[6-(1,1-difluoro-2-methoxyethyl)pyridin-3-yl]oxy}pyridin-3-yl)-[1,2,4]triazolo[1,5-a]pyridine]
- MIC [1]: 0.2 to 0.78 µg/mL (≈ 0.522 to 2.03 µM)
- MIC [2]: 0.2 to 0.78 µg/mL (≈ 0.522 to 2.03 µM)

Compound: CCOC(=O)CN(C)c1ccc(Oc2ncccc2-c2ccccc2OC)cn1 [I-344, ethyl 2-[(5-{[3-(2-methoxyphenyl)pyridin-2-yl]oxy}pyridin-2-yl)(methyl)amino]acetate]
- MIC [1]: ≤ 0.1 µg/mL
- MIC [2]: ≤ 0.1 µg/mL

Compound: COc1ccccc1-c1cccnc1Oc1ccc2c(c1)CCC2 [I-345, 2-[(2,3-dihydro-1H-inden-5-yl)oxy]-3-(2-methoxyphenyl)pyridine]
- MIC [1]: ≤ 0.1 µg/mL
- MIC [2]: ≤ 0.1 µg/mL

Compound: Cc1nn(C)c(C)c1-c1cccnc1Oc1ccc(C(F)(F)F)nc1 [I-346, 2-{[6-(trifluoromethyl)pyridin-3-yl]oxy}-3-(1,3,5-trimethyl-1H-pyrazol-4-yl)pyridine]
- MIC [1]: 1.56 to 6.25 µg/mL (≈ 4.48 to 17.9 µM)
- MIC [2]: 1.56 to 6.25 µg/mL (≈ 4.48 to 17.9 µM)

Compound: COc1ncccc1-c1cccnc1Oc1ccc(C(F)(F)CO)nc1 [I-347]
- MIC [1]: 1.56 to 6.25 µg/mL (≈ 4.34 to 17.4 µM)
- MIC [2]: 1.56 to 6.25 µg/mL (≈ 4.34 to 17.4 µM)

Compound: COCC(F)(F)c1ccc(Oc2ncccc2-c2cccnc2OC)cn1 [I-348, 2-{[6-(1,1-difluoro-2-methoxyethyl)pyridin-3-yl]oxy}-2′-methoxy-3,3′-bipyridine]
- MIC [1]: 0.2 to 0.78 µg/mL (≈ 0.536 to 2.09 µM)
- MIC [2]: 0.2 to 0.78 µg/mL (≈ 0.536 to 2.09 µM)

Compound: COCC(F)(F)c1ccc(Oc2ncccc2-c2cnccc2OC)cn1 [I-349, 2-{[6-(1,1-difluoro-2-methoxyethyl)pyridin-3-yl]oxy}-4′-methoxy-3,3′-bipyridine]
- MIC [1]: 1.56 to 6.25 µg/mL (≈ 4.18 to 16.7 µM)
- MIC [2]: 1.56 to 6.25 µg/mL (≈ 4.18 to 16.7 µM)

Compound: COc1ccccc1-c1cccnc1Oc1ccc(C(F)(F)Cn2cccn2)nc1 [I-350, 2-({6-[1,1-difluoro-2-(1H-pyrazol-1-yl)ethyl]pyridin-3-yl}oxy)-3-(2-methoxyphenyl)pyridine]
- MIC [1]: ≤ 0.1 µg/mL
- MIC [2]: ≤ 0.1 µg/mL

Compound: COc1ccccc1-c1cccnc1Oc1ccc(C(F)(F)Cn2ccnc2)nc1 [I-351, 2-({6-[1,1-difluoro-2-(1H-imidazol-1-yl)ethyl]pyridin-3-yl}oxy)-3-(2-methoxyphenyl)pyridine]
- MIC [1]: 0.2 to 0.78 µg/mL (≈ 0.49 to 1.91 µM)
- MIC [2]: 0.2 to 0.78 µg/mL (≈ 0.49 to 1.91 µM)

Compound: COc1ncccc1-c1cccnc1Oc1cnc(I)nc1 [I-353]
- MIC [1]: 0.2 to 0.78 µg/mL (≈ 0.492 to 1.92 µM)
- MIC [2]: 1.56 to 6.25 µg/mL (≈ 3.84 to 15.4 µM)

Compound: COC(=O)CN(C)c1ncc(Oc2ncccc2-c2cccnc2OC)cn1 [I-354, methyl 2-[(5-{[2′-methoxy-(3,3′-bipyridin)-2-yl]oxy}-pyrimidin-2-yl)(methyl)amino]acetate]
- MIC [1]: 0.2 to 0.78 µg/mL (≈ 0.524 to 2.05 µM)
- MIC [2]: ≤ 0.1 µg/mL

Compound: COc1c(Cl)cncc1-c1cccnc1Oc1ccc(C(F)F)cc1 [I-355, 5′-chloro-2-[4-(difluoromethyl)phenoxy]-4′-methoxy-3,3′-bipyridine]
- MIC [1]: ≤ 0.1 µg/mL
- MIC [2]: ≤ 0.1 µg/mL

Compound: COc1c(F)cncc1-c1cccnc1Oc1ccc(C(F)F)cc1 [I-356, 2-[4-(difluoromethyl)phenoxy]-5′-fluoro-4′-methoxy-3,3′-bipyridine]
- MIC [1]: ≤ 0.1 µg/mL
- MIC [2]: ≤ 0.1 µg/mL

Compound: COc1ccncc1-c1cncnc1Oc1ccc(Cl)cc1 [I-357, 4-(4-chlorophenoxy)-5-(4-methoxypyridin-3-yl)pyrimidine]
- MIC [1]: 1.56 to 6.25 µg/mL (≈ 4.97 to 19.9 µM)
- MIC [2]: 0.2 to 0.78 µg/mL (≈ 0.637 to 2.49 µM)

Compound: FC(F)c1ccc(Oc2ncncc2-c2cccc3ccnn23)cc1 [I-358, 7-{4-[4-(difluoromethyl)phenoxy]pyrimidin-5-yl)pyrazolo[1,5-a]-pyridine]
- MIC [1]: ≤ 0.1 µg/mL
- MIC [2]: ≤ 0.1 µg/mL

Compound: COc1cc(F)ccc1-c1cncnc1Oc1ccc(C(C)(F)F)nc1 [I-359, 4-{[6-(1,1-difluoroethyl)pyridin-3-yl]oxy}-5-(4-fluoro-2-methoxyphenyl)pyrimidine]
- MIC [1]: ≤ 0.1 µg/mL
- MIC [2]: ≤ 0.1 µg/mL

Compound: COc1ccc(F)cc1-c1cncnc1Oc1ccc(C(C)(F)F)nc1 [I-360, 4-{[6-(1,1-difluoroethyl)pyridin-3-yl]oxy}-5-(5-fluoro-2-methoxyphenyl)pyrimidine]
- MIC [1]: ≤ 0.1 µg/mL
- MIC [2]: ≤ 0.1 µg/mL

Compound: COCC(F)(F)c1ccc(Oc2ncncc2-c2cccnc2OC)cn1 [I-361, 4-{[6-(1,1-difluoro-2-methoxyethyl)pyridin-3-yl]oxy}-5-(2-methoxypyridin-3-yl)pyrimidine]
- MIC [1]: 0.2 to 0.78 µg/mL (≈ 0.534 to 2.08 µM)
- MIC [2]: 0.2 to 0.78 µg/mL (≈ 0.534 to 2.08 µM)
